Measured values published in patent EP0163537A1, “1-Propanone derivatives and pharmaceutical compositions containing same” (priority 1984, dated 1985).
Counter-ions that a name gives are not always drawn. Like-named read-outs stand apart in the source and are kept apart here.

What was measured:
Format in all cases: in vivo
[1] = test system: Male mice of ddY strain; test: Test 3 Muscle relaxant activity (traction test, method of Courvoisier et al.); conditions: 15 minutes after administration, groups of ten
Protocol: Male mice of ddY strain, weighing 30 to 37 g, were used in groups of ten. The test compounds were dissolved in physiological saline and administered intraperitoneally in a dose of 50 or 75 mg/kg. […] This method involves a traction test in which the animal is hung by its forelimbs on a horizontal metal rod (2 mm in diameter) placed 20 cm above the floor and examined as to whether it can put its hindlimb on the rod or not.
Specifically, 15 minutes after administration of a test compound, the mouse was hung on the rod by its forelimbs. […] It had been confirmed in preliminary tests that, under normal conditions, all the mice could put their hindlimb on the rod within 5 seconds.

[2] = test system: Male mice of ddY strain; test: Test 1 Anti-nicotine activity (inhibition of nicotine-induced convulsive death); conditions: 200 mg/kg po, nicotine 2 mg/kg iv after 1 h, observed 1 h; for responders at 200 mg/kg: Mus musculus
Protocol: Male mice of ddY strain, weighing 28 to 33 g, were used in groups of eight or twelve. The test compounds were dissolved in distilled water and administered orally in a dose of 200 mg/kg. After an hour, nicotine was intravenously administered in a dose of 2 mg/kg.

[3] = test system: Male mice of ddY strain; test: Test 2 Anti-tremorine activity (inhibition of tremorine-induced tremor); conditions: for responders at 50 mg/kg: Mus musculus, po, read-out: Inhibition of tremor (%)
Protocol: Male mice of ddY strain, weighing 28 to 32 g, were used in groups of eight or ten. The test compounds were dissolved in distilled water and administered orally in a dose of 50 mg/kg. After 30 minutes, tremorine dihydrochloride was subcutaneously administered in a dose of 20 mg/kg. Then, the occurrence of tremor was observed after the lapse of 30 and 60 minutes.

[4] = Test 5 Acute toxicity (LD50, method of Behrens and Kärbar); conditions: mouse, in vivo, po, mice, observed for 7 days
Protocol: Male mice of ddY strain, weighing 25 to 30 g, were used in groups of five. The test compounds were dissolved in distilled water and administered orally in various doses. […] Then, the LDso was calculated according to the method of Behrens and Kärbar.

[5] = po, 1 h, Table-2a, 8 animals used
[6] = po, 1 h, Table-2b, 12 animals used
[7] = po, 1 h, Table-2c, 12 animals used
[8] = 0.5 h, Table-3a, 50 mg/kg po, After 30 min. from tremorine 20 mg/kg sc, 8 animals used
[9] = 0.5 h, Table-3b, 50 mg/kg po, After 30 min., 10 animals used
[10] = 0.5 h, Table-3d, 50 mg/kg po, After 30 min., 10 animals used
[11] = 1 h, Table-3a, 50 mg/kg po, After 60 min. from tremorine 20 mg/kg sc, 8 animals used
[12] = 1 h, Table-3b, 50 mg/kg po, After 60 min., 10 animals used
[13] = 1 h, Table-3d, 50 mg/kg po, After 60 min., 10 animals used
[14] = Table-3a, 50 mg/kg po, After 30 min. from tremorine 20 mg/kg sc, 8 animals used
[15] = Table-3a, 50 mg/kg po, After 60 min. from tremorine 20 mg/kg sc, 8 animals used
[16] = Table-3b, 50 mg/kg po, After 30 min., 10 animals used
[17] = Table-3b, 50 mg/kg po, After 60 min., 10 animals used
[18] = Table-3d, 50 mg/kg po, After 30 min., 10 animals used
[19] = Table-3d, 50 mg/kg po, After 60 min., 10 animals used

Compound | Number of animals exhibiting muscle relaxation ([1]; Table-4a, 50 mg/kg ip) | responders at 200 mg/kg [2, 5] [%] | responders at 200 mg/kg [2, 7] [%] | responders at 50 mg/kg [3, 8] [%] | responders at 50 mg/kg [3, 9] [%] | responders at 50 mg/kg [3, 10] [%] | responders at 50 mg/kg [3, 11] [%] | responders at 50 mg/kg [3, 12] [%] | responders at 50 mg/kg [3, 13] [%] | LD50 at 168 h ([4]; Table-5a) [mg/kg] | Number of animals exhibiting no tremor [3, 14] | Number of animals exhibiting no tremor [3, 15] | Number of animals exhibiting no tremor [3, 18] | Number of animals exhibiting no tremor [3, 19] | Number of surviving animals ([2]; Table-2a, 8 animals used) | further results
CCc1ccc(C(=O)C(C)CN2CCCCC2)cc1 (stereo not shown) [Eperisone HCl, Eperisone, reference compound] | 2 | 50 | 50 | 87.5 | 80 | 80 | 0 | 10 | 20 | 595 | – | – | – | – | – | Number of animals exhibiting muscle relaxation ([1]; Table-4d, 75 mg/kg ip): 2; responders at 200 mg/kg [2, 6]: 50%; LD50 at 168 h ([4]; Table-5b): 475 mg/kg; LD50 at 168 h ([4]; Table-5c): 565 mg/kg
Cc1ccc(C(=O)C(C)CN2CCCCC2)cc1 (stereo not shown) [Tolperisone HCl, 2-methyl-1-(4-methylphenyl)-3-(1-piperidinyl)-1-propanone, reference compound] | 1 | 0 | 8.3 | 0 | 0 | 0 | 0 | 0 | 0 | 625 | 0 | 0 | 0 | 0 | – | Number of animals exhibiting muscle relaxation ([1]; Table-4d, 75 mg/kg ip): 1; responders at 200 mg/kg [2, 6]: 0%; Number of animals exhibiting no tremor [3, 16]: 0; Number of animals exhibiting no tremor [3, 17]: 0; LD50 at 168 h ([4]; Table-5b): 655 mg/kg; LD50 at 168 h ([4]; Table-5c): 595 mg/kg
CCC(CN1CCCCCC1)C(=O)c1ccc2c(c1)CCO2.Cl (stereo not shown) [Example 96, 1-(2,3-Dihydro-5-benzofuranyl)-2-ethyl-3-(hexa-hydro-1H-azepin-1-yl)-1-propanone hydrochloride] | – | – | 41.7 | – | – | 100 | – | – | 100 | – | – | – | 10 | 10 | – | Number of surviving animals ([2]; Table-2c, 12 animals used): 5
CCC(CN1CCCCC1)C(=O)c1ccc(C2CC2)cc1.Cl (stereo not shown) [Example 11, 1-(4-Cyclopropylphenyl)-2-ethyl-3-piperidino-1-propanone hydrochloride] | – | 37.5 | – | 100 | – | – | 100 | – | – | – | 8 | 8 | – | – | 3 | –
CC(CN1CCCC1)C(=O)c1ccc(C2CC2)cc1.Cl (stereo not shown) [Example 8, 1-(4-Cyclopropylphenyl)-2-methyl-3-(1-pyrrolidinyl)-1-propanone hydrochloride] | 7 | 62.5 | – | 100 | – | – | 87.5 | – | – | 505 | – | – | – | – | 5 | –
CC(C)C(CN1CCCCC1)C(=O)c1ccc(C2CC2)cc1.Cl (stereo not shown) [Example 5, 1-(4-Cyclopropylphenyl)-2-isopropyl-3-piperidino-1-propanone hydrochloride] | – | – | – | – | 100 | – | – | 100 | – | – | – | – | – | – | – | Number of animals exhibiting no tremor [3, 16]: 10; Number of animals exhibiting no tremor [3, 17]: 10
CCC(CN1CCCC1)C(=O)c1ccc2c(c1)CCO2.Cl (stereo not shown) [Example 95, 1-(2,3-Dihydro-5-benzofuranyl)-2-ethyl-3-(1-pyrrolidinyl)-1-propanone hydrochloride] | – | – | – | – | – | – | – | – | – | – | – | – | 10 | 10 | – | responders at 200 mg/kg ([2]; Table-2c, 12 animals used): 16.7%; Number of surviving animals ([2]; Table-2c, 12 animals used): 2; responders at 50 mg/kg ([3]; 0.5 h): 100%; responders at 50 mg/kg ([3]; 1 h): 100%
CC(CN1CCCCCC1)C(=O)c1ccc2c(c1)OCO2.Cl (stereo not shown) [Example 61, 2-Methyl-1-(3,4-methylenedioxyphenyl)-3-(hexahydro-1H-azepin-1-yl)-1-propanone hydrochloride] | – | – | – | – | – | – | – | – | – | – | – | – | – | – | – | responders at 200 mg/kg ([2]; Table-2b, 12 animals used): 58.3%; Number of surviving animals ([2]; Table-2b, 12 animals used): 7
CCC(CN1CCCC1)C(=O)c1ccc(C2CC2)cc1.Cl (stereo not shown) [Example 10, 1-(4-Cyclopropylphenyl)-2-ethyl-3-(1-pyrrolidinyl)-1-propanone hydrochloride] | – | 0 | – | 100 | – | – | 100 | – | – | – | 8 | 8 | – | – | 0 | –
